From patent US10562878B2, “Cycloalkylamines as monoamine reuptake inhibitors” (Sunovion Pharmaceuticals Inc., priority 2006, dated 2020) come the findings set out here.

Test [1] concerns mice. Briefly: Mouse tail suspension test. It counts as in vivo.
Test [2] relates to mice. Briefly: Mouse locomotor activity. Type of test: in vivo.
The subject of test [3] is Rats. Briefly: Rat forced swim test. It counts as in vivo.
In test [4] the target is T1, Norepinephrine Transporter (NET) sites in mouse brain (Mus musculus (Mouse), UniProt O55192). The note with it: mice, 60 min after treatment.
The target in test [5] is 5-HT Transporter (SERT) sites in mouse brain (Mus musculus (Mouse), UniProt Q60857). The experiment in a line: Ex vivo [3H] citalopram binding to SERT sites in mouse brain after oral dosing. The note with it: mice, 60 min after treatment; for receptor occupancy at 1 mg/kg / receptor occupancy at 3 mg/kg / receptor occupancy at 10 mg/kg / receptor occupancy at 30 mg/kg: mouse.

The target of test [6] is T1, Norepinephrine Transporter (NET) sites in mouse brain. The experiment in a line: in vivo. Conditions: po, read-out: NET % Transporter Occupancy.
For test [7], the target named is DA Transporter (DAT) sites in mouse brain (Mus musculus (Mouse), UniProt Q61327). Briefly: Ex vivo [3H] WIN 35428 binding to DAT sites in mouse brain after oral dosing. The note with it: mice, 60 min after treatment; for receptor occupancy at 1 mg/kg / receptor occupancy at 3 mg/kg / receptor occupancy at 10 mg/kg / receptor occupancy at 30 mg/kg: mouse.
In test [8] the target is human dopamine transporter (Homo sapiens (Human), UniProt Q01959). Briefly: Dopamine functional uptake assay, recombinant human transporter in CHO-K1 or HEK293 cells. It counts as cell-based. Conditions: read-out: hDAT IC50.
For test [9], the target named is human serotonin transporter (Homo sapiens (Human), UniProt P31645). The experiment in a line: Serotonin functional uptake assay, recombinant human transporter in HEK-293 cells. It counts as cell-based. The note with it: Human serotonin transporter uptake; read-out: hSERT IC50.

Structures are written as SMILES. Counter-ions that a name gives are not always drawn. Like-named read-outs stand apart in the source and are kept apart here.

Sequence of human serotonin transporter (P31645 whole entry): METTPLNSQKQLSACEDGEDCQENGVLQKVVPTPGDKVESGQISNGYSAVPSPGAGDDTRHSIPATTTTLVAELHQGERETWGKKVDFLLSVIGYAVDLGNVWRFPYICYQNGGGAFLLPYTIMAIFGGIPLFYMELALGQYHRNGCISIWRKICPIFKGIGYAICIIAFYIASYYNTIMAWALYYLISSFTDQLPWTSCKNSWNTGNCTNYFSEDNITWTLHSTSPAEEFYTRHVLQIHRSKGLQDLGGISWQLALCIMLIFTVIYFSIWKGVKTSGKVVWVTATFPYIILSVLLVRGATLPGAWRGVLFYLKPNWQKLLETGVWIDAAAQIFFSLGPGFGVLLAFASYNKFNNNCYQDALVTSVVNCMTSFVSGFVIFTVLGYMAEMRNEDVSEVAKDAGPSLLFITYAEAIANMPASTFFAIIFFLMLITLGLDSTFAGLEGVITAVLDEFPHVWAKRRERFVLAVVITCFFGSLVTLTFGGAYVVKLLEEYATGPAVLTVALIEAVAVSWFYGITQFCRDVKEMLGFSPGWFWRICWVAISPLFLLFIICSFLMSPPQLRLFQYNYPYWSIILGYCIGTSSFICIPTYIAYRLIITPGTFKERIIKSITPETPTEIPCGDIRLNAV
Sequence of human dopamine transporter (Q01959 whole entry): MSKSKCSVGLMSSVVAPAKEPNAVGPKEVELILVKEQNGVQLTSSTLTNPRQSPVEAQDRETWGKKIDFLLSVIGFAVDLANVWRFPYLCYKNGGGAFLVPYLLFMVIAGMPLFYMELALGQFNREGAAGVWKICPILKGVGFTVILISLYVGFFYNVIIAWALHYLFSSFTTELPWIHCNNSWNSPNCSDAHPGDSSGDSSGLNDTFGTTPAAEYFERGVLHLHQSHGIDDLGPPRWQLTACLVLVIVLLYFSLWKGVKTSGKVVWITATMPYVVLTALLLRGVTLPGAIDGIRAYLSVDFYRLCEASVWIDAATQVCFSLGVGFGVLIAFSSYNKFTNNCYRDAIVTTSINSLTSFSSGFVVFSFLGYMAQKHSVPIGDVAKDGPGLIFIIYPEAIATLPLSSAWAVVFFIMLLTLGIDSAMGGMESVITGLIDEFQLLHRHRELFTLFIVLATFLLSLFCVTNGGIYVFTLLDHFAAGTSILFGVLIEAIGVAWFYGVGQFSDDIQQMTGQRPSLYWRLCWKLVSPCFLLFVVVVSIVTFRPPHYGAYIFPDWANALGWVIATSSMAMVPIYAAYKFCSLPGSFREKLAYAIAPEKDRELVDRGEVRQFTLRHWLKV

`CCC(N)C1(c2ccc(Cl)c(Cl)c2)CCCCC1` (single isomer, unassigned) [17 E1, 1-(1-(3,4-dichlorophenyl)cyclohexyl)propan-1-amine]: the “Mouse Tail Suspension Mean Immobility Time ± S.E.M.” value was 184.7 ± 9.0 in [1] (3 mg/kg PO), 182.6 ± 4.1 in [1] (10 mg/kg PO) and 150.9 ± 7.8 in test [1] (30 mg/kg PO). Moreover, the figures for the “Mouse Locomotor Activity Total Distance Traveled ± S.E.M.” value in [2] (3 mg/kg PO), in test [2] (10 mg/kg PO) and in [2] (30 mg/kg PO) were 649.3 ± 78.4, 478.3 ± 88.5 and 428.3 ± 120.6, respectively.

Take `CC(N(C)C)C1(c2ccc3ccccc3c2)CCCCC1` (single isomer, unassigned) [56 E1, N,N-dimethyl-1-(1-(naphthalen-2-yl)cyclohexyl)ethanamine]: the “Mouse Tail Suspension Mean Immobility Time ± S.E.M.” value in test [1] (10 mg/kg PO) was determined as 174.8 ± 6.1; in [1] (30 mg/kg PO), 141.9 ± 7.4. Moreover, the “Rat Forced Swim Climbing (Means ± S.E.M.)” value (shortened to “Rat Forced Swim Climbing”) in test [3] (3 mg/kg PO) was found to be 7.1 ± 1.6; in [3] (10 mg/kg PO) it was 8.6 ± 0.9; in [3] (30 mg/kg PO), 17.9 ± 2.4. The “Rat Forced Swim Immobility (Means ± S.E.M.)” value (“Rat Forced Swim Immobility” below) in test [3] (3 mg/kg PO) is on record as 52.2 ± 1.6; in test [3] (10 mg/kg PO), 50.7 ± 1.0; in test [3] (30 mg/kg PO) it was 40.4 ± 2.7. Moreover, the results for the “Rat Forced Swim Swimming (Means ± S.E.M.)” value (“Rat Forced Swim Swimming” below) in test [3] (3 mg/kg PO), in [3] (10 mg/kg PO) and in [3] (30 mg/kg PO) were 0.3 ± 0.2, 0.8 ± 0.3 and 1.0 ± 0.4, respectively. The “NET Mean Specific Binding ± S.E.M.” value in test [4] (1 mg/kg PO) amounted to 616 ± 50 dpm; in [4] (3 mg/kg PO) it was 368 ± 17 dpm; in [4] (10 mg/kg PO), 106 ± 20 dpm; in [4] (30 mg/kg PO), 19 ± 2 dpm. In addition, the “SERT Mean Specific Binding ± S.E.M.” value in test [5] (1 mg/kg PO) is reported as 2625 ± 138 dpm; in test [5] (3 mg/kg PO) it was 1346 ± 109 dpm; in test [5] (10 mg/kg PO), 278 ± 42 dpm; in [5] (30 mg/kg PO) it was 151 ± 60 dpm. In addition, the receptor occupancy at 1 mg/kg in test [5] (1 mg/kg PO) was 19%; in test [6], 20%; in test [7] (1 mg/kg PO) it was 5%. The receptor occupancy at 3 mg/kg in [5] (3 mg/kg PO) is 58%; in test [6], 52%; in test [7] (3 mg/kg PO) it was 4%. The receptor occupancy at 10 mg/kg was 91% in test [5] (10 mg/kg PO), 86% in test [6] and 23% in test [7] (10 mg/kg PO). Also, the results for the receptor occupancy at 30 mg/kg in [5] (30 mg/kg PO), in [6] and in test [7] (30 mg/kg PO) were 95%, 98% and 67%, respectively. Also, the “DAT Mean Specific Binding ± S.E.M.” value is 41561 ± 1611 dpm in [7] (1 mg/kg PO), 42127 ± 2130 dpm in test [7] (3 mg/kg PO), 33478 ± 1779 dpm in test [7] (10 mg/kg PO) and 14637 ± 1567 dpm in test [7] (30 mg/kg PO).

For the compound `CNC(C)C1(c2ccc(Cl)c(Cl)c2)CCCCC1` (single isomer, unassigned) [44 E1, 1-(1-(3,4-dichlorophenyl)cyclohexyl)-N-methylethanamine], the “Mouse Tail Suspension Mean Immobility Time ± S.E.M.” value in test [1] (30 mg/kg PO) was determined as 120.4 ± 9.0. Besides, the “Mouse Locomotor Activity Total Distance Traveled ± S.E.M.” value in test [2] (30 mg/kg PO) is listed as 402.3 ± 71.0.

The term IC50 denotes the midpoint of a concentration-inhibition curve. As for `CN(C)C[C@]1(c2ccc(Cl)c(Cl)c2)CCCC[C@H]1O` (relative stereo) [153 E2, trans-2-(3,4-dichlorophenyl)-2-((dimethylamino)methyl)cyclohexanol], the IC50 was found to be 25 nM in test [8] and 64 nM in [9]. Also, the “Mouse Tail Suspension Mean Immobility Time ± S.E.M.” value in [1] (10 mg/kg PO) is 170.2 ± 6.3; in test [1] (30 mg/kg PO), 154.5 ± 8.4. Besides, the entries for the “Rat Forced Swim Climbing” value in test [3] (3 mg/kg PO), in test [3] (10 mg/kg PO) and in test [3] (30 mg/kg PO) were 8.8 ± 1.5, 11.7 ± 1.8 and 22.2 ± 5.2, respectively. Moreover, the “Rat Forced Swim Immobility” value in test [3] (3 mg/kg PO) stood at 49.9 ± 1.7; in test [3] (10 mg/kg PO), 44.0 ± 2.1; in test [3] (30 mg/kg PO), 31.3 ± 6.7. Also, the “Rat Forced Swim Swimming” value in test [3] (3 mg/kg PO) amounted to 1.9 ± 0.8; in test [3] (10 mg/kg PO) it was 4.3 ± 1.1; in test [3] (30 mg/kg PO), 4.6 ± 1.3. In addition, the “NET Mean Specific Binding ± S.E.M.” value in test [4] (1 mg/kg PO) is listed as 1804 ± 79 dpm; in test [4] (3 mg/kg PO), 1726 ± 44 dpm; in test [4] (10 mg/kg PO), 1734 ± 62 dpm; in [4] (30 mg/kg PO) it was 1140 ± 53 dpm. In addition, the “SERT Mean Specific Binding ± S.E.M.” value turned out to be 3271 ± 199 dpm in test [5] (1 mg/kg PO), 2968 ± 100 dpm in test [5] (3 mg/kg PO), 2327 ± 150 dpm in test [5] (10 mg/kg PO) and 1359 ± 89 dpm in test [5] (30 mg/kg PO). In addition, the results for the receptor occupancy at 1 mg/kg in test [5] (1 mg/kg PO), in test [6] and in [7] (1 mg/kg PO) were -1%, 6% and -10%, respectively. Further, the figures for the receptor occupancy at 3 mg/kg in [5] (3 mg/kg PO), in test [6] and in [7] (3 mg/kg PO) were 8%, 10% and -16%, respectively. The values for the receptor occupancy at 10 mg/kg in test [5] (10 mg/kg PO), in [6] and in [7] (10 mg/kg PO) were 28%, 9% and -6%, respectively. For the same compound, the receptor occupancy at 30 mg/kg in [5] (30 mg/kg PO) is 58%; in test [6], 40%; in test [7] (30 mg/kg PO) it was 22%. The “DAT Mean Specific Binding ± S.E.M.” value in test [7] (1 mg/kg PO) came out at 22774 ± 916 dpm; in test [7] (3 mg/kg PO), 24159 ± 1313 dpm; in [7] (30 mg/kg PO), 16194 ± 1293 dpm.

Turning to `CNCC1(c2ccc(Cl)c(Cl)c2)CCCCC1` [Compound 75, 1-(1-(3,4-dichlorophenyl)cyclohexyl)-N-methylmethanamine (hydrochloride)], the “Mouse Tail Suspension Mean Immobility Time ± S.E.M.” value in test [1] (3 mg/kg PO) is recorded as 187.8 ± 9.6; in test [1] (10 mg/kg PO) it was 177.7 ± 5.8; in test [1] (30 mg/kg PO), 143.5 ± 5.8. Moreover, the entries for the “Mouse Locomotor Activity Total Distance Traveled ± S.E.M.” value in test [2] (3 mg/kg PO), in test [2] (10 mg/kg PO) and in [2] (30 mg/kg PO) were 653.5 ± 48.4, 608.8 ± 83.4 and 655.3 ± 117.7, respectively.

Take `CN[C@H](C)C1(c2ccc(Cl)c(Cl)c2)CCCCC1` (stereo in doubt) [48 E1, 1-(1-(3,4-dichlorophenyl)cyclohexyl)-N-methylethanamine hydrochloride]: the “Mouse Tail Suspension Mean Immobility Time ± S.E.M.” value in test [1] (10 mg/kg PO) is listed as 174.1 ± 5.8; in test [1] (30 mg/kg PO), 134.5 ± 9.6. The entries for the “Rat Forced Swim Climbing” value in test [3] (3 mg/kg PO), in test [3] (10 mg/kg PO) and in test [3] (30 mg/kg PO) were 7.1 ± 0.6, 17.9 ± 2.5 and 20.6 ± 2.9, respectively. Moreover, the “Rat Forced Swim Immobility” value is reported as 49.6 ± 1.5 in test [3] (3 mg/kg PO), 35.6 ± 3.5 in test [3] (10 mg/kg PO) and 26.9 ± 4.4 in test [3] (30 mg/kg PO). The “Rat Forced Swim Swimming” value in test [3] (3 mg/kg PO) is listed as 3.7 ± 1.0; in test [3] (10 mg/kg PO) it was 6.5 ± 1.6; in test [3] (30 mg/kg PO) it was 9.7 ± 1.7. The “NET Mean Specific Binding ± S.E.M.” value in test [4] (1 mg/kg PO) was 2111 ± 119 dpm; in [4] (3 mg/kg PO) it was 1911 ± 144 dpm; in test [4] (10 mg/kg PO), 954 ± 115 dpm; in test [4] (30 mg/kg PO) it was 346 ± 55 dpm. The receptor occupancy at 1 mg/kg is -1% in [5] (1 mg/kg PO), 12% in test [6] and -1% in test [7] (1 mg/kg PO). In addition, the results for the receptor occupancy at 3 mg/kg in [6] and in [7] (3 mg/kg PO) were 21% and 11%, respectively. The figures for the receptor occupancy at 10 mg/kg in test [6] and in test [7] (10 mg/kg PO) were 60% and 52%, respectively. For the same compound, the figures for the receptor occupancy at 30 mg/kg in [6] and in [7] (30 mg/kg PO) were 86% and 84%, respectively. Moreover, the “DAT Mean Specific Binding ± S.E.M.” value amounted to 20656 ± 1531 dpm in [7] (1 mg/kg PO), 18039 ± 1265 dpm in test [7] (3 mg/kg PO), 9792 ± 977 dpm in test [7] (10 mg/kg PO) and 3173 ± 541 dpm in test [7] (30 mg/kg PO).
